Results published in patent US4866084A, “Topsentin compounds effective against viruses and certain tumors” (Harbor Branch Oceanographic Institution, Inc., priority 1988, dated 1989).
In brackets after ≈: the same amount, converted by molar mass. Where two headings read alike, the source gives them in different places.

Legend:
[1] = tested on: CV-1 cells; assay: Cytotoxicity in antiviral disc assay (Table 3); format: cell-based, African green monkey; parameters: key: 0 = no cytotoxicity, 16 = complete cell destruction
Protocol: (§1) a. Herpes simplex type 1 (HSV-1) replicates in the CV-1 cell line. CV-1 is a fibroblast-like cell culture derived from primary African green monkey cells. a. For drug evaluation wet filter paper discs (6 mm dia.) with approx. 0.02 ml of test compound. Allow solvent to evaporate for 20-30 mins. at ambient temperature, then place discs in the well containing CV-1 cells, virus and MCO. b. Incubate tissue culture plates for 48 hrs. at 37 C. c. After 48 hrs. place 0.5 ml NRMCO on each well. (NRMCO is a maintenance overlay medium without phenol red containing 0.1 mg neutral red dye/ml and 2% 15 Cps. methylcellulose. b. Cytotoxicity (Cyt) 0=no visual or microscopic cytotoxicity 16=complete cell destruction 8, 10, 12, 14=partial cytotoxicity.

[2] = tested on: P388 murine leukemia cells; assay: P388 in vitro antitumor screen (MTT, 48 h); format: cell-based
Protocol: Cell Culture. P388 murine leukemia cells, obtained from the National Cancer Institute, Bethesda, MD, were maintained at 37° C. in 5% CO2 in humidified air. Growth medium was Roswell Park Memorial Institute medium 1640 supplemented with 10% heat-inactivated horse serum. Stock cultures of P388 cells were grown in antibiotic-free growth medium and were subcultured (10^5 cells/ml, 25 ml cultures in T-25 plastic tissue culture flasks) every 2-3 days. […] An appropriate volume of the dilution was transferred to duplicate wells in a 96-well plate, evaporated to dryness, and 200 μl of growth medium containing cells at a density of 1×10^5 cells/ml was added per well. […] For daily quality control, each technician determines the IC50 of fluorouracil for inhibition of P388 cell proliferation. After 48-hour incubations, cell number was determined with the MTT assay (below), calculated as a percent of untreated cell growth, converted to percent inhibition, and reported to the chemist requesting the screen.
Determination of IC50 Values. The initial determination of an IC50 value for inhibition of P388 cell proliferation with a crude, semipure, or pure sample was made by diluting the sample in methanol to the appropriate concentration and then serial 1:1 dilutions were made in duplicate in a 96-well plate, such that the final concentrations in the assay were […] μg/ml. After solvent was evaporated to dryness, cells were added to each well as described above. After 48-hour incubations, cell numbers were determined with the MTT assay, converted to percent control, plotted versus the log of the sample concentration. Curves were fitted by least-squares linear regression of logit-transformed data and the concentration of sample that inhibited cell proliferation by 50% was reported to the chemist requesting the screen.
MTT Assay for Cell Number. MTT or 3-(4,5-Dimethylthiazol-2-yl)-2,5-diphenyl-tetrazolium bromide is used in an established method (J. Immunol. Methods, 1983, 65: 55-63) to enumerate cells rather than "Coulter counting".

[3] = tested on: CV-1 cells; assay: Cytotoxicity in antiviral assay (Table 4); format: cell-based, African green monkey; parameters: key: 0 = no cytotoxicity, 16 = complete cell destruction
Protocol: as §1

[4] = tested on: HSV-1; assay: HSV-1 antiviral activity assay (Table 4); format: cell-based, Herpes simplex type 1 (HSV-1); parameters: key to the marks not given beside the values
Protocol: (§2) a. Herpes simplex type 1 (HSV-1) replicates in the CV-1 cell line. CV-1 is a fibroblast-like cell culture derived from primary African green monkey cells.
(§3) a. Dilute the cells with EMEM to 4×10^5 cells/ml.
(§4) b. See 24-well trays with 0.5 ml per well. Cell concentration is […] cells.
(§5) c. Incubate at 37 C. for 1.5 hours.
(§6) d. The wells can be used over the next several days beginning the day after seeding (preferably 2, 3, or 4).
(§7) a. Remove medium from wells.
(§8) b. Infect well with at least 25 and no more than 80 plaque forming units (PFU) of virus.
(§9) c. Incubate infected cells at 37 C. for 1.5 hrs.
(§10) d. Pour off supernatant at end of incubation period.
(§11) e. Add 0.5 ml of methylcellulose overlay medium (MCO). MCO is a maintenance medium without phenol red made with 1% 4000 centipose methylcellulose. FBS is used at 5% level.
(§12) a. For drug evaluation wet filter paper discs (6 mm dia.) with approx. 0.02 ml of test compound. Allow solvent to evaporate for 20-30 mins. at ambient temperature, then place discs in the well containing CV-1 cells, virus and MCO.
(§13) b. Incubate tissue culture plates for 48 hrs. at 37 C.
(§14) c. After 48 hrs. place 0.5 ml NRMCO on each well. (NRMCO is a maintenance overlay medium without phenol red containing 0.1 mg neutral red dye/ml and 2% 15 Cps. methylcellulose.
(§15) d. Incubate plates at 37 C. and read the following day. Antiviral activity should be observed from two parameters. One is actual reduction in the number of plaques and two is the diminution in plaque diameter.
(§16) a. Antiviral activity (AVA) is scored from 0 to +++.
(§17) +++=complete inhibiton of plaque formation

[5] = tested on: T47D human breast carcinoma cells; assay: Human tumor cell line assay, T47D; format: cell-based; conditions: 120 h, read-out: T47D: cell density compared with control growth
Protocol: (§18) HCT-8 human colon tumor cells are grown in RPM1 1640 medium (GIBCO). A549 human lung carcinoma cells and T47D human breast carcinoma cells are cultured in Dulbecco medium (Biologos, Inc.). All media are supplemented with 10% fetal bovine serum and contain 50 μg/ml gentamicin. All human tumor cell lines are incubated in 5% CO2 at 37° C. and subcultured once a week.
(§19) 2. Incubate in a CO2 -incubator for 48 hours.
(§20) 3. Add compound to each well and incubate for an additional 120 hours.
(§21) 4. Discard medium and stain with methylene blue (HCT-8) or crystal violet (A549 & T47D).
(§22) 5. Compare density of drug-treated well with that of the control (no drug added) as follows: ND (not detectable) >90%, 1+=75-90%, 2+=50-74%, 3+=25-49%, 4+=<25% of control growth.
(§23) Final conc. of Vinblastine or Vincristine control (use 2 μl/assay).
(§24) For solvents other than water, allow solvent to evaporate from tube or well in hood. Always run a solvent control in duplicate in the last two wells of each plate or four tubes for each rack of 72 or fewer tubes. Also run four wells or tubes with media and cells only per run of plates or tubes. When using volumes of aqueous solutions greater than 200 ml, dry sample and bring to desired concentration in media.

[6] = tested on: P388 leukemia; format: in vivo, BDF1 mice; conditions: days 1-5, mice
Protocol: P388 leukemia obtained from DBA/2 mice was inoculated ip into BDF1 mice. The inoculum level was 10^6 cells in 0.1 ml. Mice were randomized on day 1 into groups of six mice since bacteriological check of tumor was negative. Test materials were dissolved or suspended in sterile 0.98% NaCl solution with the aid of absolute ethanol and "Tween-80", then administered ip, qD1-5, in a volume of 0.5 ml/mouse. Mice were weighed on days 1 & 5 to provide evidence of toxicity and deaths were recorded daily. Each test included appropriate numbers of untested control mice, one-dose level of the positive reference compound 5-fluorouracil and test material (four dose levels each). Test material were prepared fresh on day 1 and administered daily for five days. Quantity and consistency of test material precluded fresh preparation daily. Doses were derived from prior single treatment acute toxicity assays. The endpoints for therapeutic evaluation were mean and median survival time and long-term survivors on day 30. A 25% percent increase in life span (%ILS) was considered evidence of significant activity.

[7] = tested on: A549 human lung carcinoma cells; assay: Human tumor cell line assay, A549; format: cell-based; conditions: 120 h, read-out: A549: cell density compared with control growth; for activity at 500 fg/mL: 0.5 pg/ml
Protocol: as §18, §19, §20, §21, §22, §23, §24

[8] = tested on: Herpes simplex virus type 1 (HSV-1); assay: Antiviral disc assay for HSV-1 (Table 3); format: cell-based, Herpes simplex type 1 (HSV-1)
Protocol: as §2, §3, §4, §5, §6, §7, §8, §9, §10, §11, §12, §13, §14, §15, §16, §17

[9] = Biological activities of synthesized versus natural topsentin
[10] = Mus musculus, P388 murine leukemia cells, 48 h, MTT

Question: With `O=C(c1nc(-c2c[nH]c3ccc(O)cc23)c[nH]1)c1c[nH]c2ccccc12` [Compound 8, Neoisotopsentin] as the compound, how does the CYT. ([1]; Table 3, 20 ug/disk) read?
Answer: The CYT. was 0.

Question: And the IC50 [2, 10]?
Answer: The IC50 was 1.8 µg/mL (≈ 5.26 µM).

Question: And the CYT. ([3]; Table 4, 20 μg/disk)?
Answer: The CYT. was 0.

Question: Which CYT. ([1]; Table 3, 20 ug/disk) does the source give for `O=C(c1nc(-c2c[nH]c3ccccc23)c[nH]1)c1c[nH]c2ccc(O)cc12` [Compound 7, Neotopsentin] here?
Answer: Its CYT. is 0.

Question: And the IC50 [2, 10]?
Answer: Its IC50 is 2.5 µg/mL (≈ 7.3 µM).

Question: And the CYT. ([3]; Table 4, 20 μg/disk)?
Answer: The CYT. was 0.

Question: With `O=C(c1nc(-c2c[nH]c3cc(O)ccc23)c[nH]1)c1c[nH]c2ccccc12` [Compound 4, Isotopsentin] as the compound, how does the IC50 [2, 10] read?
Answer: The IC50 was 4 µg/mL (≈ 11.7 µM).

Question: What about the CYT. ([3]; Table 4, 2 μg/disk) of the same compound?
Answer: The CYT. was 0.

Question: And the CYT. ([3]; Table 4, 20 μg/disk)?
Answer: Its CYT. is 0.

Question: And the AVA ([4]; Table 4, 20 μg/disk)?
Answer: Its AVA is “+++”.

Question: For `O=C(c1nc(-c2c[nH]c3cc(O)ccc23)c[nH]1)c1c[nH]c2cc(O)ccc12` [Compound 5, Hydroxytopsentin], which CYT. ([1]; Table 3, 20 ug/disk) is on record?
Answer: Its CYT. is 0.

Question: And the IC50 [2, 10]?
Answer: The IC50 was 0.3 µg/mL (≈ 0.837 µM).

Question: What about the CYT. ([3]; Table 4, 2 μg/disk) of the same compound?
Answer: Its CYT. is 0.

Question: What about the CYT. ([3]; Table 4, 20 μg/disk) of the same compound?
Answer: Its CYT. is 0.

Question: And the AVA ([4]; Table 4, 20 μg/disk)?
Answer: Its AVA is “++”.

Question: What does the source list for `O=C(c1nc(-c2c[nH]c3cc(Br)ccc23)c[nH]1)c1c[nH]c2cc(O)ccc12` [Compound 2, Bromotopsentin]?
Answer: activity at 5 pg/mL [5]: 50 to 74%; activity at 20 pg/mL [5]: 25 to 49%; activity at 50 pg/mL [5]: < 25%; activity at 500 fg/mL [5]: > 90%; Survival % T/C ([6]; 37.5 mg/kg ip): 105%; Survival % T/C ([6]; 75 mg/kg ip): 111%; Survival % T/C ([6]; 150 mg/kg ip): 116%; activity at 500 fg/mL [7]: > 90%; activity at 5 pg/mL ([7]; 5 pg/ml): > 90%; activity at 50 pg/mL [7]: < 25%; CYT. ([1]; Table 3, 50 ug/disk): 0; CYT. ([1]; Table 3, 200 ug/disk): 0; AVA ([8]; Table 3, 200 ug/disk): ++; IC50 [2, 10]: 7 µg/mL (≈ 16.6 µM); CYT. ([3]; Table 4, 5 μg/disk): 0; CYT. ([3]; Table 4, 10 μg/disk): 0; AVA ([4]; Table 4, 10 μg/disk): ++

Question: With `O=c1[nH]cc(F)c(=O)[nH]1` [fluorouracil, 5-fluorouracil, reference compound] as the compound, how does the inhibition at 0.2 µg/mL ([2]; Mus musculus, P388, read-out: inhibition of cell replication) read?
Answer: The inhibition at 0.2 µg/mL was roughly 95%.

Question: Which results are given for `O=C(c1nc(-c2c[nH]c3ccccc23)c[nH]1)c1c[nH]c2cc(O)ccc12` [Compound 1, Topsentin]?
Answer: activity at 5 pg/mL [5]: 50 to 74%; activity at 20 pg/mL [5]: < 25%; activity at 50 pg/mL [5]: < 25%; activity at 500 fg/mL [5]: > 90%; Survival % T/C ([6]; 37.5 mg/kg ip): 111%; Survival % T/C ([6]; 75 mg/kg ip): 116%; Survival % T/C ([6]; 150 mg/kg ip): 132%; Survival % T/C ([6]; 300 mg/kg ip): 110%; activity at 500 fg/mL [7]: > 90%; activity at 50 pg/mL [7]: < 25%; CYT. ([1]; Table 3, 20 ug/disk): 0; CYT. ([1]; Table 3, 50 ug/disk): 0; CYT. ([1]; Table 3, 200 ug/disk): 0; AVA ([8]; Table 3, 50 ug/disk): +; AVA ([8]; Table 3, 200 ug/disk): ++; biological activities compared with natural topsentin [9]: identical with natural topsentin in spectral data and in biological activities; IC50 [2, 10]: 2 µg/mL (≈ 5.84 µM); CYT. ([3]; Table 4, 0.2 μg/disk): 0; CYT. ([3]; Table 4, 2 μg/disk): 0; CYT. ([3]; Table 4, 20 μg/disk): 0; AVA ([4]; Table 4, 2 μg/disk): +++; AVA ([4]; Table 4, 20 μg/disk): +++

Question: With `O=C(c1nc(-c2c[nH]c3ccc(O)cc23)c[nH]1)c1c[nH]c2ccc(O)cc12` [Compound 9, Neohydroxytopsentin] as the compound, how does the CYT. ([1]; Table 3, 20 ug/disk) read?
Answer: The CYT. was 0.

Question: What about the IC50 [2, 10] of the same compound?
Answer: Its IC50 is greater than 20 µg/mL.

Question: And the CYT. ([3]; Table 4, 20 μg/disk)?
Answer: Its CYT. is 0.

Question: With `O=C(C1=NC(c2c[nH]c3ccccc23)CN1)c1c[nH]c2cc(Br)ccc12` (stereo not drawn) [Compound 3, 4,5-dihydro-6"-deoxybromotopsentin] as the compound, how does the “P388 IC50” value ([2]; P388 murine leukemia cells, 48 h, MTT) read?
Answer: The value was 4.0 µg/mL.

Question: And the AVA ([4]; Table 4, 20 μg/disk)?
Answer: Its AVA is “+++”.
